The source of these data is article PMC11475281, “A Novel Liver Cancer-Selective Histone Deacetylase Inhibitor Is Effective against Hepatocellular Carcinoma and Induces Durable Responses with Immunotherapy” (ACS Pharmacology & Translational Science, 2024).

One assay relates to Hep-G2 (HCC). Description: MTS cell viability assay, 72 h. The conditions noted are these: for IC50: Table S2, read-out: Anti-proliferation IC50 Hep-G2; for Hep-G2-selectivity (VERO/Hep-G2): ratio of VERO to Hep-G2 cytotoxicity. The class given is cell-based, human. The text has this: (§1) We then screened STR-V-53 and all the synthesized glycosylated HDACi for their effects on the viability of three cell lines: A549 (lung adenocarcinoma), Hep-G2 (HCC), and VERO (a normal kidney epithelial cell). We used SORA and STR-V-48, a previously disclosed nonglycosylated compound, as controls.[25] […] Additionally, compound STR-V-167, the peracetylated analog of STR-V-53, largely retained the Hep-G2 selectivity of STR-V-53 (Table S2). Subsequently, we evaluated the effects of STR-V-53 on cell proliferation using a panel of human HCC cell lines (Huh-7, SK-Hep-1, and Hep3B) as well as Kupffer cells (liver resident macrophages) by MTS assay. We observed that STR-V-53 is 7- to 16-fold more cytotoxic against these HCC cell lines relative to the Kupffer cells (Figure 1g). […] Based on their weak HDAC and cell proliferation inhibition activities, we de-emphasized further evaluation of the class III compounds.
(§2) 10-017-CV), supplemented with 10% fetal bovine serum (FBS) (Corning, 35-010-CV). Hep-G2 cells were cultured in phenol red-free Minimum Essential Medium (MEM) (Corning, 17-305-CV), supplemented with 10% fetal bovine serum (FBS). SK-Hep-1 in ATCC-formulated EMEM (ATCC® 30–2003™); Huh-7 in DMEM (containing 4 mM L-glutamine and 1 g/L glucose) with […]
(§3) Kupffer Cell Media (Sekisui XenoTech, LLC, Cat. #K8700). Cells were seeded into a 96-well plate (2000 counts/100uL) for 24 h prior to treatment and then treated with various drug concentrations for 72 h. All drugs were dissolved in media with DMSO concentration maintained at 1%. The effect of compounds on cell viability was measured using the MTS assay (CellTiter 96 Aqueous One Solution and CellTiter 96 Non-Radioactive Cell Proliferation Assays, Promega, Madison, WI) as described by the manufacturer. IC50s were determined using Prism GraphPad 8. […]

In assay [1] the test system is A549 (lung adenocarcinoma). As to the kind of experiment: MTS cell viability assay, 72 h. The class given is cell-based. The following applies: Table S2, read-out: Anti-proliferation IC50 A549.
Description: as §1, §2, §3

In assay [2] the test system is VERO (a normal kidney epithelial cell). Description: MTS cell viability assay, 72 h. The following applies: Table S2, read-out: Anti-proliferation IC50 VERO. Format: cell-based.
Description: as §1, §2, §3

Another assay addresses T1, HDAC8 (Homo sapiens, UniProt Q9BY41).
T1 sequence (Q9BY41 1-377): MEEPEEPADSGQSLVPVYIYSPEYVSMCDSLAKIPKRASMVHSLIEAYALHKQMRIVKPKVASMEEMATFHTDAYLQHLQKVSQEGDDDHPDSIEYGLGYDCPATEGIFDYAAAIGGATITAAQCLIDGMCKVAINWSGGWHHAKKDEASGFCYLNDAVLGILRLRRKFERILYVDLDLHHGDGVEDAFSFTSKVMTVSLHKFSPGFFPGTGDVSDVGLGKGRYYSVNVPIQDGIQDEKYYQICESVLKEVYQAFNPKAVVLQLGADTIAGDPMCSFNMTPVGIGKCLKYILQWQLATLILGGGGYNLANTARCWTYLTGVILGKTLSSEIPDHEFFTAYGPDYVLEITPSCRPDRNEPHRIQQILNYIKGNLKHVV
As to the kind of experiment: HDAC isoform inhibition (BPS Bioscience). The following applies: read-out: HDAC8 IC50; Table S1.

A further assay concerns the target HDAC1 (Homo sapiens, UniProt Q13547). As to the kind of experiment: HDAC isoform inhibition (BPS Bioscience). The conditions noted are these: read-out: HDAC1 IC50; Table S1.
The next assay has as its target T2, HDAC6 (Homo sapiens, UniProt Q9UBN7).
T2 sequence (Q9UBN7 1-1215): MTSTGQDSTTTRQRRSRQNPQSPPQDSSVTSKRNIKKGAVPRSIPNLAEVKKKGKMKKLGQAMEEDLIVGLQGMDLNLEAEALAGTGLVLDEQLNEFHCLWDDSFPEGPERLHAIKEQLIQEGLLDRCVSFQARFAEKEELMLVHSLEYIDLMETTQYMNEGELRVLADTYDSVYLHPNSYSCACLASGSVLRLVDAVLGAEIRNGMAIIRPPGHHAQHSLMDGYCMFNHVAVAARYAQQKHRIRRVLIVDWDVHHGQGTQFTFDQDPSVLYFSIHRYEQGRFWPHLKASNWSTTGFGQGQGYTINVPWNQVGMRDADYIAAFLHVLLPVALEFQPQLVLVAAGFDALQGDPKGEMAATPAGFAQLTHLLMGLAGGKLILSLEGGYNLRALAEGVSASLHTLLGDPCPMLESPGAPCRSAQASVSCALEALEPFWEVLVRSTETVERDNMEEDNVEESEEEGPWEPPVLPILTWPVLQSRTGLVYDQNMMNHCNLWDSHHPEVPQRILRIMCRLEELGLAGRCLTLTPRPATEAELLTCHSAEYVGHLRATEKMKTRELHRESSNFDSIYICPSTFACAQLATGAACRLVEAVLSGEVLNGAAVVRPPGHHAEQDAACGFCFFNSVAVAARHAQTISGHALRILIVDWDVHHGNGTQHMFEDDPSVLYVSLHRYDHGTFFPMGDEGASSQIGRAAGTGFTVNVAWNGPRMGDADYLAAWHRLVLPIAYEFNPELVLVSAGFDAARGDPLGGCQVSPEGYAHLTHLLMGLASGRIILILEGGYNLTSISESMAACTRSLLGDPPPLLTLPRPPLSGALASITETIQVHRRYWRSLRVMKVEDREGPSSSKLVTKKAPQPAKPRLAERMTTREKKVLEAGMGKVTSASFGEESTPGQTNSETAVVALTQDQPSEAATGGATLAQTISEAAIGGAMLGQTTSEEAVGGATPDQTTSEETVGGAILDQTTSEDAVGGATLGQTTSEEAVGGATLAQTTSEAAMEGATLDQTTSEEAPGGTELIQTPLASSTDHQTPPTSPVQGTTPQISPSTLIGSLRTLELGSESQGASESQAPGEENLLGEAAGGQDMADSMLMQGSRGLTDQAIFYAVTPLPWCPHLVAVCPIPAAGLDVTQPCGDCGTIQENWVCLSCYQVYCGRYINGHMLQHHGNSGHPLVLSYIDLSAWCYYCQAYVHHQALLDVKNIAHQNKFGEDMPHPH
As to the kind of experiment: HDAC isoform inhibition (BPS Bioscience). The following applies: read-out: HDAC6 IC50; Table S1.

A further assay deals with HDAC2 (Homo sapiens, UniProt Q92769). As to the kind of experiment: HDAC isoform inhibition (BPS Bioscience). The conditions noted are these: read-out: HDAC2 IC50; Table S1.
A further assay deals with HCC. Set-up: method as in PMID 22915658. The conditions noted are these: HCC patients on belinostat treatment, NCT00321594; cited from earlier work.

Read-outs that look alike come from different tables or passages of the source.

Sequence of HDAC2 (Q92769 whole entry, canonical isoform): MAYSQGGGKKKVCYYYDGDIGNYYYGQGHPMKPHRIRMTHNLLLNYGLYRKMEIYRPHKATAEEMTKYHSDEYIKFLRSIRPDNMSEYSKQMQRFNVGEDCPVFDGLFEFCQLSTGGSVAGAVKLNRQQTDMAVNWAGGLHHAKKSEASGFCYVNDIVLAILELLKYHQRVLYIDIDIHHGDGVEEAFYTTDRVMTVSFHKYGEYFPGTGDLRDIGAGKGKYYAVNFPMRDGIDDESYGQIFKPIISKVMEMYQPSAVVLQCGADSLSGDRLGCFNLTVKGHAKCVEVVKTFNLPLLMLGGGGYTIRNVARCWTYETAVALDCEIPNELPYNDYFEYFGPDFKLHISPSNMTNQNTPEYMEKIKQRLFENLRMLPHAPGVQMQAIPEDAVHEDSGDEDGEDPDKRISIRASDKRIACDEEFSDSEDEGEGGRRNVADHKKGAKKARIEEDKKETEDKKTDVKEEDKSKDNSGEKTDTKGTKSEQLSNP
Sequence of HDAC1 (Q13547 whole entry, canonical isoform): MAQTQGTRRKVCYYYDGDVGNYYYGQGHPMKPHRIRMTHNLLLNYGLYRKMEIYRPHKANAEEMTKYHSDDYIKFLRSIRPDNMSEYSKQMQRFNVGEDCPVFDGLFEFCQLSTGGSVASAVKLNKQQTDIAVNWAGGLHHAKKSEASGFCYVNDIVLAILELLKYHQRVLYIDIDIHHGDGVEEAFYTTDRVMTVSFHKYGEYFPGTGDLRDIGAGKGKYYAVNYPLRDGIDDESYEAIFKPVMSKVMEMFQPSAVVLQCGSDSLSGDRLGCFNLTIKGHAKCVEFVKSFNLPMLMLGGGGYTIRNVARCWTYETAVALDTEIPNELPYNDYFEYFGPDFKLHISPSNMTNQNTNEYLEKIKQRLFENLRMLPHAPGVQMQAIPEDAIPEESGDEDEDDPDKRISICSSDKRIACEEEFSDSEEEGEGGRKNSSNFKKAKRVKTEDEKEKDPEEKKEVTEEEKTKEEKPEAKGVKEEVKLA

As to `COc1ccc2cc(-c3cn(CCCCCCC(=O)NO)nn3)ccc2c1` [STR-V-48, N-hydroxy-7-(4-(6-methoxynaphthalen-2-yl)-1H-1,2,3-triazol-1-yl)heptanamide, reference compound], the IC50 is 0.4 ± 0.04 µM in the assay with Hep-G2 (HCC) (Homo sapiens, HepG2); 1.4 ± 0.2 µM in assay [1] (Homo sapiens, A549); 0.2 ± 0.05 µM in assay [2] (Chlorocebus sabaeus, Vero).

With `O=C(CCCCCCn1cc(-c2ccc3cc(O[C@@H]4O[C@H](CO)[C@@H](O)[C@H](O)[C@H]4O)ccc3c2)nn1)NO` [STR-II-36], the IC50 worked out at 319 nM on HDAC8; 7.5 ± 0.8 µM in the assay on Hep-G2 (HCC); 3.28 nM on HDAC1; 20.1 ± 1.1 µM in assay [1]; 33.6 ± 5.5 µM in assay [2]; 0.72 nM on HDAC6. At HDAC2, the IC50 came out at 10.4 nM.

Take `CC(=O)OCC1OC(Oc2ccc(-c3cn(CCCCCCC(=O)NO)nn3)cc2)C(OC(C)=O)C(OC(C)=O)C1OC(C)=O` (stereo not shown) [STR-V-176]: the IC50 on HDAC8 worked out at 271 nM; in the assay on Hep-G2 (HCC) it was 8 ± 0.9 µM; at HDAC1 it was 1.43 nM; in assay [1] it was 64.7 ± 7 µM; in assay [2] it was 77.4 ± 5.6 µM; on HDAC6, 1.05 nM. Further, on HDAC2, the IC50 is 4.2 nM. Further, in the assay with Hep-G2 (HCC), the “Hep-G2-selectivity (VERO/Hep-G2)” value was 10 fold.

Turning to `CC(=O)OCC1OC(Oc2ccc(-c3cn(CCCCCCC(=O)NO)nn3)cc2)C(OC(C)=O)C(OC(C)=O)C1OC(C)=O` (stereo not shown) [STR-V-167], the IC50 on HDAC8 was 311 nM; with Hep-G2 (HCC), 10.1 ± 1.2 µM; at HDAC1, 31.8 nM; in assay [1], over 100 µM; in assay [2], over 100 µM; at HDAC6 it was 2.61 nM. For the same compound, the IC50 on HDAC2 was determined as 66.4 nM.

Turning to `O=C(/C=C/c1cccc(S(=O)(=O)Nc2ccccc2)c1)NO` [belinostat], in the assay on HCC, the “Median overall survival (OS)” value is recorded as 6.60 months and the “Median progression-free survival (PFS)” value is on record as 2.64 months.

With `CC(=O)O[C@H]1[C@H](Oc2ccc(-c3cn(CCCCCCC(=O)NO)nn3)cc2)O[C@H](C)C[C@@H]1N(C)C` [STR-V-165], the IC50 at HDAC8 is 806 nM; with Hep-G2 (HCC) it was 9.6 ± 3.4 µM; on HDAC1, 10.3 nM; in assay [1], 33.7 ± 1.8 µM; in assay [2] it was 76.4 µM; at HDAC6, 5.22 nM. Further, at HDAC2, the IC50 was 27.5 nM. Besides, the “Hep-G2-selectivity (VERO/Hep-G2)” value in the assay with Hep-G2 (HCC) is on record as 8 fold.

In the case of `CC(=O)OCC1OC(Oc2ccc3cc(-c4cn(CCCCCCC(=O)NO)nn4)ccc3c2)C(OC(C)=O)C(OC(C)=O)C1OC(C)=O` (stereo not shown) [STR-V-177], the IC50 at HDAC8 worked out at 718 nM; in the assay with Hep-G2 (HCC), 7.4 ± 0.9 µM; on HDAC1 it was 2.2 nM; in assay [1], 39.6 ± 0.6 µM; in assay [2], 19.2 ± 0.9 µM; on HDAC6, 1.65 nM. Moreover, on HDAC2, the IC50 stood at 13.2 nM.

As to `CNC(=O)c1cc(Oc2ccc(NC(=O)Nc3ccc(Cl)c(C(F)(F)F)c3)cc2)ccn1` [SORA, sorafenib, reference compound], the IC50 in the assay on Hep-G2 (HCC) (Homo sapiens, HepG2) came to 3.7 ± 0.4 µM; in assay [1] (Homo sapiens, A549), 18.1 ± 2.9 µM; in assay [2] (Chlorocebus sabaeus, Vero), 12.2 ± 0.1 µM. Besides, the “Hep-G2-selectivity (VERO/Hep-G2)” value with Hep-G2 (HCC) is “about three times more cytotoxic”.
